We go through 18 compounds from ChEMBL document CHEMBL1157907, “Synthesis and anti-tumor activities of methyl 2-O-aryl-6-O-aryl'-D-glucopyranosides” (Bioorg Med Chem Lett, 2010).

SMILES strings stand for the structures.

A word on the EC50: it is the concentration needed to bring the measured effect to its halfway point.

The first series relates to MDA-MB-231. Briefly: Cytotoxicity against human MDA-MB-231 cells after 48 hrs by MTT assay. Type of series: functional, cell-based. The conditions noted are these: MDA-MB-231, 48 h. (In general: Tetrazolium dyes change colour on reduction, which living cells bring about.)
Turning to `CO[C@H]1O[C@H](COc2ccc(OC3CCCCC3)cc2)[C@@H](O)[C@H](O)[C@H]1Oc1ccc(OC2CCCCC2)cc1`, it took 20 µM to reach a half-maximal effect (EC50).
Same read-out and setting: to `CO[C@H]1O[C@H](COc2ccc(C3CCCCC3)cc2)[C@@H](O)[C@H](O)[C@H]1Oc1ccc(OC2CCCCC2)cc1` belongs 14 µM.
On the same count and under the same terms, to `CO[C@H]1O[C@H](COc2ccc(-c3ccccc3)cc2)[C@@H](O)[C@H](O)[C@H]1Oc1ccc(C(C)C)cc1` belongs 31 µM; to `CO[C@@H]1O[C@H](COc2cccc(C(C)C)c2)[C@@H](O)[C@H](O)[C@H]1Oc1ccc(OC2CCCCC2)cc1`, 40 µM; to `CO[C@@H]1O[C@H](COc2ccc(OC3CCCCC3)cc2)[C@@H](O)[C@H](O)[C@H]1Oc1ccc(OC2CCCCC2)cc1`, 26 µM.
Still for that read-out and setting: with `CO[C@H]1O[C@H](COc2cccc(C(C)C)c2)[C@@H](O)[C@H](O)[C@H]1Oc1ccc(OC2CCCCC2)cc1` the figure was 38 µM; with `CO[C@H]1O[C@H](COc2ccc(-c3ccccc3)cc2)[C@@H](O)[C@H](O)[C@H]1Oc1ccccc1C(C)C`, 34 µM.
`CO[C@H]1O[C@H](COc2ccc(C3CCCCC3)cc2)[C@@H](O)[C@H](O)[C@H]1Oc1ccc2c(c1)CCCC2` displayed an EC50 of 25 µM.
In turn, `CO[C@H]1O[C@H](COc2ccc(C3CCCCC3)cc2)[C@@H](O)[C@H](O)[C@H]1Oc1cccc2c1CCCC2` had an EC50 of 37 µM. The EC50 values of the last two compounds are within 1.5-fold of each other.

Another series concerns A549. Briefly: Cytotoxicity against human A549 cells up to 50 uM after 48 hrs by MTT assay. In kind it is functional, cell-based.
Details: not given; call rule not given here
In the case of `CO[C@H]1O[C@H](COc2ccc(-c3ccccc3)cc2)[C@@H](O)[C@H](O)[C@H]1Oc1ccccc1`, the EC50 result is “Not Active”.
On the same count and under the same terms, with `CO[C@@H]1O[C@H](COc2ccc3c(c2)CCCC3)[C@@H](O)[C@H](O)[C@H]1Oc1cccc(C(C)C)c1` the entry was “Not Active”; with `COc1cc(OC)cc(OC[C@H]2O[C@H](OC)[C@H](Oc3ccc(OC4CCCCC4)cc3)[C@@H](O)[C@@H]2O)c1`, “Not Active”.
For `CO[C@H]1O[C@H](COc2ccc3c(c2)CCCC3)[C@@H](O)[C@H](O)[C@H]1Oc1cccc(C(C)C)c1`, the half-maximal effective concentration (EC50) entry is given as “Not Active”.
Same read-out and setting: with `COc1ccc(OC[C@H]2O[C@@H](OC)[C@H](Oc3ccc(OC4CCCCC4)cc3)[C@@H](O)[C@@H]2O)cc1OC` the entry was “Not Active”; with `COc1ccc(OC[C@H]2O[C@H](OC)[C@H](Oc3ccc(OC4CCCCC4)cc3)[C@@H](O)[C@@H]2O)cc1OC`, “Not Active”.
Still for that read-out and setting: to `CO[C@H]1O[C@H](COc2ccc(C3CCCCC3)cc2)[C@@H](OCc2ccccc2)[C@H](OCc2ccccc2)[C@H]1Oc1ccc(OC2CCCCC2)cc1` belongs “Not Active”; to `CO[C@H]1O[C@H](COc2ccc(C3CCCCC3)cc2)[C@@H](OC)[C@H](OC)[C@H]1Oc1ccc(OC2CCCCC2)cc1`, “Not Active”.
Still for that read-out and setting: to `C=CCO[C@@H]1[C@@H](Oc2ccc(OC3CCCCC3)cc2)[C@@H](OC)O[C@H](COc2ccc(C3CCCCC3)cc2)[C@H]1OCC=C` belongs “Not Active”.

The test system of the next series is MDA-MB-231. The experiment in a line: Cytotoxicity against human MDA-MB-231 cells up to 50 uM after 48 hrs by MTT assay.
Details: not given
Type of series: functional, cell-based.
Regarding `CO[C@@H]1O[C@H](COc2ccc3c(c2)CCCC3)[C@@H](O)[C@H](O)[C@H]1Oc1cccc(C(C)C)c1`, the EC50 entry is given as “Not Active”.
Take `COc1cc(OC)cc(OC[C@H]2O[C@H](OC)[C@H](Oc3ccc(OC4CCCCC4)cc3)[C@@H](O)[C@@H]2O)c1`: the EC50 entry was “Not Active”.
Still for that read-out and setting: to `COc1ccc(OC[C@H]2O[C@@H](OC)[C@H](Oc3ccc(OC4CCCCC4)cc3)[C@@H](O)[C@@H]2O)cc1OC` belongs “Not Active”; to `COc1ccc(OC[C@H]2O[C@H](OC)[C@H](Oc3ccc(OC4CCCCC4)cc3)[C@@H](O)[C@@H]2O)cc1OC`, “Not Active”.
Same read-out and setting: with `CO[C@H]1O[C@H](COc2ccc(C3CCCCC3)cc2)[C@@H](OCc2ccccc2)[C@H](OCc2ccccc2)[C@H]1Oc1ccc(OC2CCCCC2)cc1` the entry was “Not Active”; with `CO[C@H]1O[C@H](COc2ccc(C3CCCCC3)cc2)[C@@H](OC)[C@H](OC)[C@H]1Oc1ccc(OC2CCCCC2)cc1`, “Not Active”.
As for `C=CCO[C@@H]1[C@@H](Oc2ccc(OC3CCCCC3)cc2)[C@@H](OC)O[C@H](COc2ccc(C3CCCCC3)cc2)[C@H]1OCC=C`, the EC50 result was “Not Active”.

The next series relates to HeLa. The experiment in a line: Cytotoxicity against human HeLa cells up to 50 uM after 48 hrs by MTT assay.
Details: not given
In kind it is functional, cell-based.
Take `CO[C@@H]1O[C@H](COc2ccc3c(c2)CCCC3)[C@@H](O)[C@H](O)[C@H]1Oc1cccc(C(C)C)c1`: the half-maximal effective concentration (EC50) result is listed as “Not Active”.
The same measure, in the same setting: with `COc1cc(OC)cc(OC[C@H]2O[C@H](OC)[C@H](Oc3ccc(OC4CCCCC4)cc3)[C@@H](O)[C@@H]2O)c1` the entry was “Not Active”; with `COc1ccc(OC[C@H]2O[C@@H](OC)[C@H](Oc3ccc(OC4CCCCC4)cc3)[C@@H](O)[C@@H]2O)cc1OC`, “Not Active”; with `COc1ccc(OC[C@H]2O[C@H](OC)[C@H](Oc3ccc(OC4CCCCC4)cc3)[C@@H](O)[C@@H]2O)cc1OC`, “Not Active”.
Turning to `CO[C@H]1O[C@H](COc2ccc(C3CCCCC3)cc2)[C@@H](OCc2ccccc2)[C@H](OCc2ccccc2)[C@H]1Oc1ccc(OC2CCCCC2)cc1`, the EC50 result was “Not Active”.
The same measure, in the same setting: with `CO[C@H]1O[C@H](COc2ccc(C3CCCCC3)cc2)[C@@H](OC)[C@H](OC)[C@H]1Oc1ccc(OC2CCCCC2)cc1` the entry was “Not Active”.
Still for that read-out and setting: with `C=CCO[C@@H]1[C@@H](Oc2ccc(OC3CCCCC3)cc2)[C@@H](OC)O[C@H](COc2ccc(C3CCCCC3)cc2)[C@H]1OCC=C` the entry was “Not Active”.

For another series, the system named is A549. The experiment in a line: Cytotoxicity against human A549 cells after 48 hrs by MTT assay. In kind it is functional, cell-based. The conditions noted are these: A549, 48 h.
The compound `CO[C@H]1O[C@H](COc2ccc(-c3ccccc3)cc2)[C@@H](O)[C@H](O)[C@H]1Oc1ccccc1` yielded a 50% effective concentration (EC50) of 36 µM. That is a double-digit micromolar value.
The same measure, in the same setting: with `CO[C@H]1O[C@H](COc2ccc3c(c2)CCCC3)[C@@H](O)[C@H](O)[C@H]1Oc1cccc(C(C)C)c1` the figure was 40 µM; with `CO[C@H]1O[C@H](COc2ccc(OC3CCCCC3)cc2)[C@@H](O)[C@H](O)[C@H]1Oc1ccc(OC2CCCCC2)cc1`, 18 µM.
The same measure, in the same setting: to `CO[C@H]1O[C@H](COc2ccc(C3CCCCC3)cc2)[C@@H](O)[C@H](O)[C@H]1Oc1ccc(OC2CCCCC2)cc1` belongs 12 µM; to `CO[C@H]1O[C@H](COc2ccc(-c3ccccc3)cc2)[C@@H](O)[C@H](O)[C@H]1Oc1ccc(C(C)C)cc1`, 32 µM.
The same measure, in the same setting: with `CO[C@@H]1O[C@H](COc2cccc(C(C)C)c2)[C@@H](O)[C@H](O)[C@H]1Oc1ccc(OC2CCCCC2)cc1` the figure was 41 µM; with `CO[C@@H]1O[C@H](COc2ccc(OC3CCCCC3)cc2)[C@@H](O)[C@H](O)[C@H]1Oc1ccc(OC2CCCCC2)cc1`, 25 µM.
In the case of `CO[C@H]1O[C@H](COc2cccc(C(C)C)c2)[C@@H](O)[C@H](O)[C@H]1Oc1ccc(OC2CCCCC2)cc1`, the EC50 amounted to 30 µM.
On the same count and under the same terms, with `CO[C@H]1O[C@H](COc2ccc(-c3ccccc3)cc2)[C@@H](O)[C@H](O)[C@H]1Oc1ccccc1C(C)C` the figure was 33 µM; with `CO[C@H]1O[C@H](COc2ccc(C3CCCCC3)cc2)[C@@H](O)[C@H](O)[C@H]1Oc1ccc2c(c1)CCCC2`, 17 µM.
Turning to `CO[C@H]1O[C@H](COc2ccc(C3CCCCC3)cc2)[C@@H](O)[C@H](O)[C@H]1Oc1cccc2c1CCCC2`, the response was half-maximal at 28 µM (EC50).

The test system of the next series is HeLa. The experiment in a line: Cytotoxicity against human HeLa cells after 48 hrs by MTT assay. Type of series: functional, cell-based.
Details: not given
`CO[C@H]1O[C@H](COc2ccc(-c3ccccc3)cc2)[C@@H](O)[C@H](O)[C@H]1Oc1ccccc1` had a half-maximal effective concentration (EC50) of 33 µM.
`CO[C@H]1O[C@H](COc2ccc3c(c2)CCCC3)[C@@H](O)[C@H](O)[C@H]1Oc1cccc(C(C)C)c1` registered an EC50 of 33 µM.
Still for that read-out and setting: to `CO[C@H]1O[C@H](COc2ccc(OC3CCCCC3)cc2)[C@@H](O)[C@H](O)[C@H]1Oc1ccc(OC2CCCCC2)cc1` belongs 14 µM; to `CO[C@H]1O[C@H](COc2ccc(C3CCCCC3)cc2)[C@@H](O)[C@H](O)[C@H]1Oc1ccc(OC2CCCCC2)cc1`, 10 µM; to `CO[C@H]1O[C@H](COc2ccc(-c3ccccc3)cc2)[C@@H](O)[C@H](O)[C@H]1Oc1ccc(C(C)C)cc1`, 19 µM.
On the same count and under the same terms, with `CO[C@@H]1O[C@H](COc2cccc(C(C)C)c2)[C@@H](O)[C@H](O)[C@H]1Oc1ccc(OC2CCCCC2)cc1` the figure was 39 µM; with `CO[C@@H]1O[C@H](COc2ccc(OC3CCCCC3)cc2)[C@@H](O)[C@H](O)[C@H]1Oc1ccc(OC2CCCCC2)cc1`, 14 µM.
The compound `CO[C@H]1O[C@H](COc2cccc(C(C)C)c2)[C@@H](O)[C@H](O)[C@H]1Oc1ccc(OC2CCCCC2)cc1` showed an EC50 of 28 µM.
Compound `CO[C@H]1O[C@H](COc2ccc(-c3ccccc3)cc2)[C@@H](O)[C@H](O)[C@H]1Oc1ccccc1C(C)C` displayed an EC50 of 29 µM.
For `CO[C@H]1O[C@H](COc2ccc(C3CCCCC3)cc2)[C@@H](O)[C@H](O)[C@H]1Oc1ccc2c(c1)CCCC2`, the concentration giving a half-maximal response (EC50) was determined as 29 µM.
For the compound `CO[C@H]1O[C@H](COc2ccc(C3CCCCC3)cc2)[C@@H](O)[C@H](O)[C@H]1Oc1cccc2c1CCCC2`, the response was half-maximal at 25 µM (EC50).

A further series concerns MDA-MB-231. The experiment in a line: Drug uptake in human MDA-MB-231 cells at 10 uM. Type of series: ADME, cell-based. The conditions noted are these: mda-mb-231, 10 µM.
Consider `CO[C@H]1O[C@H](COc2ccc(C3CCCCC3)cc2)[C@@H](O)[C@H](O)[C@H]1Oc1ccc(OC2CCCCC2)cc1`, for which the Drug uptake entry is reported as “Not Active”.
